# Data: patent US11559586B2, “Nanoparticles for treatment of choroidal neovascularization and other indications” (Children's Medical Center Corporation, priority 2018, dated 2023)
# Tested on: laser-induced choroidal neovascularization
# Experiment: Therapeutic study in laser-induced choroidal neovascularization model, CNV neovessel area
# Format: in vivo, C57BL/6 mice
# Details: free drug, IV day 1, 3, 5; equal dose of doxorubicin
# From the text: Therapeutic effects of phototriggered activation of nanoparticles in CNV. The mouse model of laser-induced choroidal neovascularization mimics the neovascular aspect of wet AMD, and has been used extensively in studies of that disease. However, unlike the chronic development of wet AMD in human, the laser-induced mouse CNV model is acute—the optimum time point to assess neovessels in this model is between day 7 and day 14. After 14 to 21 days, spontaneous regression begins and lesion size decreases. The dosing regimen in this example was determined accordingly: treatment was initiated on day 7 when the lesions had formed, and its effects were assessed before spontaneous regression would begin on day 14.
# In the in vivo therapeutic study, 200 microliters of PBS containing 1 mg of NP-[CPP]-doxo encapsulating 0.02 mg doxorubicin were injected via tail vein one week after photocoagulation (day 1 of treatment), and additional injections were given on day 3 and day 5. […] (The three drug-loaded groups contained equal doses of doxorubicin.) On day 7, mice were euthanized, the size of CNV lesions were assessed by fluorescent imaging of choroidal flat-mounts stained with isolectin GS-IB4 (which labels endothelial cells). […]
smiles,measurement,value
COc1cccc2c1C(=O)c1c(O)c3c(c(O)c1C2=O)C[C@@](O)(C(=O)CO)C[C@@H]3O[C@H]1C[C@H](N)[C@H](O)[C@H](C)O1 [doxorubicin],reduction in neovessel area compared to PBS group,26.8%
